Experimental findings from ChEMBL document CHEMBL3244314, “Synthesis and xanthine oxidase inhibitory analysis of 1H-pyrrolo[3,2-c]pyridine-4,6(5H,7H)-dione (3,7-dideazaxanthine) and two of its derivatives” (J Med Chem, 1978) are described below.

The target in data set [1] is T1, Xanthine dehydrogenase/oxidase (Bos taurus, UniProt P80457). Description: Inhibition of bovine buttermilk xanthine oxidase by spectrophotometric analysis. The following applies: cattle.
Data set [2] deals with T1, Xanthine dehydrogenase/oxidase. Description: Noncompetitive inhibition of bovine buttermilk xanthine oxidase by Lineweaver-burk plot analysis. Particulars: read-out: Kis; call rule not given here.

The structures appear in SMILES notation.

T1 sequence (P80457 whole entry): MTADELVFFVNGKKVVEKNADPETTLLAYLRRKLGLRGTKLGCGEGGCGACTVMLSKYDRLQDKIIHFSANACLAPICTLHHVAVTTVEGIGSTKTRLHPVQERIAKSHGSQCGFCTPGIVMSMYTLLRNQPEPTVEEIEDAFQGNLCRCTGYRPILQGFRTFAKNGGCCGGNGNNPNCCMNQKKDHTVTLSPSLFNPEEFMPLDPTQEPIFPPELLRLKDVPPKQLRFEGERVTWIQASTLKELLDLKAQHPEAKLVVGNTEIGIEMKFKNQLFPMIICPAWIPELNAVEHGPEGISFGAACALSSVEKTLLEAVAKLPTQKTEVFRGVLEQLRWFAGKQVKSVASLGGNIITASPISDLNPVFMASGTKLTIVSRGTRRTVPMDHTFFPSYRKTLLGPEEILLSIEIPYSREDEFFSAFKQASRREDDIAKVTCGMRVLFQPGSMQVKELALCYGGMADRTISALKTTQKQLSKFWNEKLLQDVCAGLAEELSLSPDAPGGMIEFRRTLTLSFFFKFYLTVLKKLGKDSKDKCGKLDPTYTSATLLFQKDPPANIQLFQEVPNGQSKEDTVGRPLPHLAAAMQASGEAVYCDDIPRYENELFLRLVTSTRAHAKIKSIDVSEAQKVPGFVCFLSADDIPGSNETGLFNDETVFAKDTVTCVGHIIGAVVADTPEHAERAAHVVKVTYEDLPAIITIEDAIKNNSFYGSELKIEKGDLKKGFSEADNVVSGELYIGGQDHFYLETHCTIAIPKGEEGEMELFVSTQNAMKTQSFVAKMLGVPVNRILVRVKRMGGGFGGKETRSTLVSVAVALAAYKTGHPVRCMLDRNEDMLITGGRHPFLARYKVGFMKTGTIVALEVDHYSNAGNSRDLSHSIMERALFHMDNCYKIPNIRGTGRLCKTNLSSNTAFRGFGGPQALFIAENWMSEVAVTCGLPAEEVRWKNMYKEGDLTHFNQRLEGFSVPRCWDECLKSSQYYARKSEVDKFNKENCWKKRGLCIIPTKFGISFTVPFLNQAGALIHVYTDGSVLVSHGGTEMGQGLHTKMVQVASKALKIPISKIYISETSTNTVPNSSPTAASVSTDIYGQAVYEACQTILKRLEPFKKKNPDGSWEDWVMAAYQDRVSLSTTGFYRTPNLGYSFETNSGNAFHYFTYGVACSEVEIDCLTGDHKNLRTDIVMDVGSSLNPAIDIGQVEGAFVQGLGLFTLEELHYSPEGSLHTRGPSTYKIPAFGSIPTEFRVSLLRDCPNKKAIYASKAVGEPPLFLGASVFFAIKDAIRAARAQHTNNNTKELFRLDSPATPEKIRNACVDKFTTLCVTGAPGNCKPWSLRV

For the compound `O=C1Cc2[nH]ccc2C(=O)O1`, in data set [1], the “inhibition (INH)” value is given as “Not Active”. As for `CN1C(=O)Cc2[nH]ccc2C1=O`, the Ki in data set [2] turned out to be 120 µM. Still for that read-out and setting: to `O=C1Cc2[nH]ccc2C(=O)N1` belongs 92.5 µM.
